Series [1] relates to phenylquinone-induced writhing in mice. Nature of the series: Writhing test in mice. The series is classed as in vivo. The note with it: Mus musculus, male NMRI mice; for inhibition at 10 mg/kg: 10 mg/kg intravenously 10 minutes before phenylquinone i.p., writhing counted 5-20 minutes after phenylquinone, read-out: % Inhibition of the writhing reaction with 10 mg/kg intravenously. As to the method: The analgesic activity was investigated on phenylquinone-induced writhing in mice (modified by I. C. Hendershot, J. Forsaith, J. Pharmacol. Exp. Ther. 125, 237-240 (1959)). Male NMRI mice weighing 25-30 g were used for this. Groups of 10 animals per dose of substance received 0.3 ml/mouse of a 0.02% aqueous solution of phenylquinone (phenylbenzoquinone, Sigma, Deisenhofen; preparation of the solution with addition of 5% ethanol and storage in a water bath at 45° C.) as an intraperitoneal administration 10 minutes after intravenous administration of the test substances. The animals were placed individually in observation cages. The number of pain-induced extension movements (so-called writhing reactions=straightening of the body with stretching out of the hind extremities) 5-20 minutes after the administration of phenylquinone was counted by means of a push-button counter. Animals which receive only physiological saline solution were also run as a control. All the substances were tested in the standard dosage of 10 mg/kg. The percentage inhibition (% inhibition) of the writhing reaction by a substance was calculated in accordance with the following equation: [formula]
For some substances, the ED50 values with 95% confidence limits of the writhing reaction were calculated from the dose-dependent decrease in the writhing reactions compared with phenylquinone control groups investigated in parallel by means of regression analysis (evaluation program of Martens EDV Service, Eckental Germany).
(An intraperitoneal irritant provokes the stretching counted in writhing tests.)

Molecules are shown by their SMILES. Counter-ions that a name gives are not always drawn.

For orientation: ED50 means the dose that gives a 50% effect, or the effect in half of the subjects. Read a high ED50 as weaker potency. Broadly, the melting point is the temperature of the solid-liquid transition. `CC(=O)Nc1ccc(-c2ccccc2CN(C)C)cc1OC(F)(F)F.Cl` [Example 22, N-(2′-Dimethylaminomethyl-3-trifluoromethoxybiphenyl-4-yl)acetamide hydrochloride] had a melting point of 182 °C. In series [1] (iv, intravenously, regression analysis of dose-dependent decrease in writhing reactions), this molecule had a median effective dose (ED50) of 6.05 mg/kg. For the same molecule, the inhibition at 10 mg/kg in series [1] is 76%.
Regarding `CN(C)Cc1ccccc1-c1cc(Cl)c(N)c(Cl)c1` [Example 43, 3,5-Dichloro-2′-dimethylaminomethyl-biphenyl-4-ylamine hydrochloride], in series [1], the inhibition at 10 mg/kg was determined as 99%.

The record behind these values is patent US6710080B2, “Substituted 2-dialkylaminoalkylbiphenyl derivatives” (Gruenenthal GmbH, priority 1999, dated 2004).
